# Columns and labels:
# [1] = system: RAW264.7 cells; test: NO production in activated RAW264.7 cells (Griess reagent, OD570); assay type: cell-based
# Protocol: It is known that, in macrophages, the expression of iNOS is induced by lipopolysaccharides such as LPS and interferons such as IFN-γ, thereby triggering NO production. Thus, by using macrophage-derived cultured cells, the influence of (±)-DHM2EQ on NO production when LPS and IFN-γ were used in combination with (±)-DHM2EQ was examined.
# (§1) Since NO produced is released out of cells and mixed in the medium, being present as NO2^−, the amount of NO produced was determined by developing a color reaction and measuring optical density (OD570) after the addition of the Griess reagent to the a medium. Then, each amount of NO produced when (±)-DHM2EQ was applied at different concentrations was compared as a relative value by taking OD570 of the sample […] the addition of macrophage activating factor as 100%.
# (§2) A cell suspension prepared at 4×10^5 cells/ml was plated at 200 μl/well in 96-well plates (Costar:Acton, Mass.). (±)-DHM2EQ was diluted at 0, 1, 3, and 10 μg/ml and added to each well of the plates. After 2-hour incubation under the condition of 37° C. in 5% CO2, IFN-γ (final concentration: 100 ng/ml) and LPS (final concentration: 10 μg/ml) were added to the wells and then the plates were incubated for 18 hours. 100 μl of the Griess reagent was added to each of the cell suspensions and allowed to react for 10 min, and then OD570 was measured with a microplate reader.
# [2] = system: RAW264.7 cells; test: Intracellular NO in RAW264.7 cells observed in situ with DAF-2DA fluorescence; assay type: cell-based; conditions: IFN-γ + LPS, 10 μg/ml compound
# Protocol: Further, to observe suppression of NO production in situ in macrophage-derived RAW264.7 cells by (±)-DHM2EQ when LPS and IFN-γ are used in combination with (±)-DHM2EQ, intracellular NO was directly observed using diaminofluorescein-2 diacetate (DAF-2DA; Daiich Pure Chemicals).
# 500 μl of RAW264.7 cells were first plated in each chamber on chamber slides at a concentration of 6×10^5 cells/ml. After 1 day incubation under the condition of 37° C. in 5% CO2, (±)-DHM2EQ was added, followed by 2-hour incubation. Subsequently, IFN-γ (final concentration: 100 ng/ml) and LPS (final concentration: 10 μg/ml) were added, followed by 6-hour incubation. Then, the medium was changed to DAF-2DA-containing phosphate buffered saline (PBS; 8 g/l NaCl, 0.2 g/l KCl, 0.916 g/l Na2HPO4, 0.2 g/l KH2PO4), followed by further 2-hour incubation. The fluorescence images were then observed with a fluorescence microscope.
# [3] = system: RAW264.7 cells; test: iNOS expression in LPS-activated RAW264.7 cells (Western blot); assay type: cell-based; conditions: LPS 10 μg/ml, 24 h, 0, 1, 3, 10 μg/ml compound
# Protocol: Since NO is produced by the enzyme iNOS within cells, it was examined whether this suppression results from suppression of iNOS expression.
# Cells were plated in 100 mm dishes at 4×10^5 cells/ml, incubated overnight, and then (±)-DHM2EQ was added at final concentrations of 0, 1, 3, and 10 μg/ml. After 2 hours, LPS (final concentration: 10 μg/ml) was added to stimulate for 24 hours. Then, cell suspension was collected and centrifuged, and cells were lysed in 65 μl of prepared lysis buffer (50 mM Tris-HCl: pH 8.0, 1% NP-40, 20 mM EDTA, 100 mM NaVO4, 0.1 mg/ml leupeptin, 1 mM PMSF). Then, the supernatant of the cell lysate was isolated, each protein concentration was measured, and the predetermined mass of protein was boiled as a sample. This sample was subjected to SDS-PAGE and the proteins on the gel were transferred to a nitrocellulose membrane, which was then reacted with anti-iNOS antibody (Santa Cruz) followed by sheep anti-rabbit IgG antibody (Amersham). Subsequently, color was developed by the ECL detection system, and the signal was detected by exposing the membrane to the film (Fuji Photo Film)
# [4] = system: RAW264.7 cells; test: IL-1β secretion from LPS-activated RAW264.7 cells (ELISA); assay type: cell-based, mouse; conditions: LPS 10 μg/ml, 24 h, 0, 1, 3, 10 μg/ml compound
# Protocol: Next, the effect of (±)-DHM2EQ on IL-1β secretion, which is another marker of macrophage activation in macrophage-derived RAW264.7 cells activated by […], was examined.
# 500 μl of RAW264.7 cells were plated in each well at a concentration of 4×10^5 cells/ml, and the plates were incubated at 37° C. for 1-day. (±)-DHM2EQ (final concentrations: 0, 1, 3, and 10 μg/ml) was then added followed by 2-hour incubation and then LPS (final concentration: 10 μg/ml) was added followed by 24-hour stimulation. After the stimulation, the cell supernatant was recovered (500 μ/l each), and centrifuged at 15000 rpm for 2 min, and the insoluble fractions were removed; the samples were thus obtained.
# The amount of IL-1β secretion was examined using mouse IL-1β ELISA assay kit (R&D Systems; Minneapolis, U.S.). First, 50 μl of Reaction Buffer was added to 96-well microplates, on which mouse IL-1β antibody (polyclonal antibody) had been fixed, and 50 βl of the aforementioned sample were applied to each well of the plates. […] Subsequently, 100 μl of stopping solution was added and the OD value at 450 nm was measured using a microplate reader. Then, the concentration of IL-1β was determined from the calibration curve constructed using mouseIL-1β standard supplied with mouse IL-1β ELISA assay kit.
# [5] = system: RAW264.7 cells; test: IL-6 secretion from LPS-activated RAW264.7 cells (ELISA); assay type: cell-based; conditions: LPS 10 μg/ml, 24 h
# [6] = system: RAW264.7 cells; test: TNF-α secretion from IL-1β-activated RAW264.7 cells; assay type: cell-based; conditions: IL-1β 10 ng/ml, 6 h
# [7] = system: J774.1 cells; test: NO production in activated J774.1 cells (Griess reagent); assay type: cell-based; conditions: IFN-γ + LPS
# Protocol: as §1, §2
# The effect of (±)-DHM2EQ on NO production in another activated macrophage-derived cell line, J774.1, was examined in the same manner as described in Example 1.
# [8] = system: RAW264.7 cells; test: COX-2 production in LPS-activated RAW264.7 cells (Western blot); assay type: cell-based; conditions: LPS 10 μg/ml, 24 h, 1, 3, 10 μg/ml compound
# Excerpt: It is known that macrophages activated by inflammatory stimuli and growth factor produces COX-2, a prostaglandin synthase, which is responsible for various pathological conditions such as inflammation, cancer cell proliferation, cancer development, angiogenesis, tumor metastasis, etc. Further, it has recently been known that, in systemic lupus erythematosus (SLE), which is an autoimmune disease, self-reactive T cells acquire resistance to apoptosis with increasing COX-2 expression (Nature Medicine 10, 411-415, 2004) Thus, on the assumption that use of (±)-DHM2EQ might make it possible to inhibit macrophage activation and thereby to suppress COX-2 production, the effect of (±)-DHM2EQ on COX-2 production in RAW264.7 cells derived from macrophages activated by LPS stimulation was examined.
# RAW264.7 cells were plated at 4×10^6 cells/dish in a 100 mm dish (Coaster:Acton, Mass.) containing DMEM medium, and the plates were incubated overnight at 37° C. under 5% CO2. Then, (±)-DHM2EQ (final concentrations: 1, 3, and 10 μg/ml) was added followed by 2-hour incubation and then LPS (final concentration: 10 μg/ml) was added followed by 24-hour stimulation. The cells were then recovered and lysed with 65 μl of lysis buffer (50 mM Tris-HCl: pH 8.0, 1% NP-40, 20 mM EDTA, 100 mM NaVO4, 0.1 mg/ml leupeptin, 1 mM PMSF) and SDS-PAGE was performed. […]
# [9] = system: RAW264.7 cells; test: Phagocytosis of fluorescent-labeled E. coli by activated RAW264.7 cells; assay type: cell-based
# Excerpt: Macrophages contribute to host defense mechanism by, when infected with bacteria, engulfing the whole or part of the bacteria as foreign matter and digesting the foreign matter in the lysosome containing hydrolytic enzymes, etc. This penomenon of engulfing foreign matter, referred to as phagocytosis, is marker of macrophage activation. Thus, by using as a marker phagocytotic ability of RAW264.7 cells derived from macrophages activated by the LPS or IL-1β stimulation, the effect of (±)-DHM2EQ on macrophage activation was examined.
# 500 μl of RAW264.7 cells were plated in each chamber at a concentration of 4×10^5 cells/ml in chamber slides. After an overnight incubation, (±)-DHM2EQ was added, and the slides were incubated for 2 hours. LPS (final concentration: 1 μg/ml) was then added, and the slides were incubated for 10 mins and then washed with 750 μl of PBS two times. Subsequently, PBS was removed and 250 μl of the solution containing fluorescent-labeled E. coli (Molecular probes, U.S.) (i.e. a solution of fluorescent-labeled E. coli diluted with […] of PBS) was added to each chamber, and the slides were incubated for 2 hours at room temperature the cells were then washed twice in 750 μl of PBS and the phagocytic ability of macrophage-derived RAW264.7 cells were observed under a fluorescence microscope and a phase-contrast microscope. In addition, in the activation using IL-1β, the phagocytic ability of macrophage-derived RAW264.7 cells was examined in the same manner as above, except that IL-1β (final concentration: 10 ng/ml) was added in place of LPS.
# [10] = system: NF-κB; test: Inhibition of NF-κB activation; conditions: compared with (±)-DHM2EQ
smiles,measurement,setting,value
"O=C(NC1=CC(=O)C2OC2C1O)c1ccccc1O (racemic) [(±)-DHM2EQ, 5,6-epoxy-4-hydroxy-3-salicyloylamino-2-cyclohexenone]",NO production,"[1]; IFN-γ 100 ng/ml + LPS 10 μg/ml, 18 h, 0, 1, 3, 10 μg/ml compound",suppressed depending on the concentration of (±)-DHM2EQ added
same,NO production,"[1]; IFN-γ + LPS, 10 μg/ml compound",suppressed almost to the control level
same,intracellular NO production (DAF-2DA fluorescence),[2],suppressed to the control level
same,iNOS expression,[3],suppresses the expression of iNOS depending on its treatment concentration
same,IL-1β secretion,[4],suppresses the expression of IL-1β depending on its treatment concentration
same,IL-6 production,[5],suppresses IL-6 production depending on its treatment concentration
same,TNF-α production,[6],suppresses TNF-α production depending on its treatment concentration
same,NO production,[7]; 10 μg/ml compound,suppressed to the control level
same,NO production,[7]; concentration series,suppressed depending on (±)-DHM2EQ treatment concentration
same,COX-2 production,[8],suppresses COX-2 production depending on its treatment concentration
same,phagocytosis of E. coli,"[9]; IL-1β stimulation, pretreatment with 10 μg/ml compound",suppressed almost to the same level as the control
same,phagocytosis of E. coli,"[9]; LPS stimulation, pretreatment with 10 μg/ml compound",suppressed almost to the same level as the control
same,phagocytosis of E. coli,"[9]; LPS stimulation, pretreatment, concentration series",suppressed depending on its treatment concentration
O=C(NC1=CC(=O)[C@H]2O[C@H]2[C@H]1O)c1ccccc1O [(−)-DHM2EQ],inhibitory effect on NF-κB activation,[10],stronger inhibitory effect on NF-κB activation than (±)-DHM2EQ
